The values that follow come from patent publication US8080547B2, “Triazolopyridine carboxamide derivatives and triazolopyrimidine carboxamide derivatives, preparation thereof and therapeutic use thereof” (Sanofi-Aventis, priority 2007, dated 2011).

For data set [1], the target named is T1, FAAH (Fatty Acid Amide Hydrolase) enzyme (Mus musculus, UniProt O08914).
T1 construct: the source of FAAH enzyme is a mouse brain homogenate from which the cerebellum and the medulla oblongata have been removed; from tissue; host or cells: mouse brain homogenate (cerebellum and medulla oblongata removed)
T1 sequence (O08914 1-579): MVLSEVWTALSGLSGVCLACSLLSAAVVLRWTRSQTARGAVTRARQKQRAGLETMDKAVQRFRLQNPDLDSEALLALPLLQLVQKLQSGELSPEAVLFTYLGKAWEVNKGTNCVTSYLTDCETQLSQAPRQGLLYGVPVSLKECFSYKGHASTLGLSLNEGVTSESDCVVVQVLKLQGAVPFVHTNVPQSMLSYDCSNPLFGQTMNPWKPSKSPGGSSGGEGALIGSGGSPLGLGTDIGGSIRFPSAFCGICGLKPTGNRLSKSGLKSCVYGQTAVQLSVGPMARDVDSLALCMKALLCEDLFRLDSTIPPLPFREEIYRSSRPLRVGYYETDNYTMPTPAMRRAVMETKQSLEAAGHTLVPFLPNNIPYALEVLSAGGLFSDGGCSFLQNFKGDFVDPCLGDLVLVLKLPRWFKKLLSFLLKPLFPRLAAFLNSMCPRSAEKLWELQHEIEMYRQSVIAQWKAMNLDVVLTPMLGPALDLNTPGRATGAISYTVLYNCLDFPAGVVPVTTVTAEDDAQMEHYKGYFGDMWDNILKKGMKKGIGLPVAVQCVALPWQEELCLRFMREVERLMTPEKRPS
As to the kind of experiment: radioenzymatic assay of [3H]anandamide hydrolysis by FAAH. Type of data set: biochemical. The settings on record: mouse brain homogenate; 20 min preincubation; 10 μM anandamide; read-out: IC50 (concentration which inhibits 50% of the control enzyme activity of FAAH). On the procedure:
Tests comprised measuring the activity, in vitro, of the compounds of the invention on the FAAH enzyme.
The inhibitory activity was measured in a radioenzymatic assay based on measuring the product of hydrolysis (ethanolamine [1-3H]) of anandamide by FAAH (Life Science (1995), 56, 1999-2005 and Journal of Pharmacology and Experimented Therapeutics (1997), 283, 729-734). The products of hydrolysis of [^3H]anandamide, labeled on ethanolamine, are arachidonic acid and [^3H]ethanolamine and the source of FAAH enzyme is a mouse brain homogenate from which the cerebellum and the medulla oblongata have been removed. The mouse brains are removed, and stored at −80° C. until they are used or homogenized immediately for twice 5 seconds using a Precellys apparatus at 5000 rpm (Bertin) in a 10 mM Tris-HCl, 150 mM NaCl, 1 mM EDTA buffer (pH 8) at 4° C. The concentration of the homogenates is then adjusted to 20 μg/μl.
(§1) The dilution series of the compounds is prepared from stock solutions at 20 mM in 100% DMSO. […]
Assaying of the FAAH activity is carried out in a 96-well microplate in a final reaction volume of 70 μl. […] After stirring for 10 minutes, the microplate is centrifuged for 15 minutes at 4000 g and a 30 μl aliquot of the aqueous phase containing the [^3H]ethanolamine produced is removed and then counted for 5 minutes by liquid scintillation (Wallac 1450 Microbeta).

For data set [2], the target named is T2, MGL (monoacyl glycerol lipase) enzyme (Mus musculus, UniProt O35678).
T2 construct: the source of MGL enzyme is a mouse brain homogenate from which the cerebellum and the medulla oblongata have been removed; from tissue; host or cells: mouse brain homogenate (cerebellum and medulla oblongata removed)
T2 sequence (O35678 1-303): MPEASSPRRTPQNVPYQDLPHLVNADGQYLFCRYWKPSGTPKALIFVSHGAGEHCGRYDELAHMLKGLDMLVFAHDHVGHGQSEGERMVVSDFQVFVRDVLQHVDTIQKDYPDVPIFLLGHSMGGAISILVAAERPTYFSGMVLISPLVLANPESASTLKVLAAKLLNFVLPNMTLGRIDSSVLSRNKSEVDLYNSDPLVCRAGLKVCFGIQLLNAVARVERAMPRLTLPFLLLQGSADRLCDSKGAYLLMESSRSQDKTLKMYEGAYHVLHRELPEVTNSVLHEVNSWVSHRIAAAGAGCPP
As to the kind of experiment: radioenzymatic assay of [3H] 2-OG hydrolysis by MGL. Type of data set: biochemical. Particulars: mouse brain homogenate; 20 min preincubation; 50 μM 2-OG; read-out: IC50 (concentration inhibiting 50% of the control enzyme activity of MGL). On the procedure:
Tests comprised measuring the activity, in vitro, of the compounds of the invention on the MGL enzyme.
The inhibitory activity was measured in a radioenzymatic assay based on measuring the product of hydrolysis of 2-oleoyl glycerol ([^3H] 2-OG) by MGL. The products of hydrolysis of [^3H] 2-OG, labeled on the glycerol, are oleic acid and [^3H]glycerol, and the source of MGL enzyme is a mouse brain homogenate from which the cerebellum and the medulla oblongata have been removed. The mouse brains are removed, and stored at −80° C. until they are used or homogenized immediately for twice 5 seconds using a Precellys apparatus at 5000 rpm (Bertin) in a 10 mM Tris-HCl, 150 mM NaCl, 1 mM EDTA buffer (pH 8) at 4° C. The concentration of the homogenates is then adjusted to 7.5 μg/μl.
as §1
Assaying of the MGL activity is carried out in a 96-well microplate in a final reaction volume of 100 μl. […] After stirring for 10 minutes, the microplate is centrifuged for 15 minutes at 4000 g and a 30 μl aliquot of the aqueous phase containing the [^3H]glycerol produced is removed and then counted for 5 minutes by liquid scintillation (Wallac 1450 Microbeta). […]

As for `COc1ccc(N2CCN(C(=O)n3nnc4ccc(N5CCCC5)nc43)CC2)cc1` [Compound No. 2, [4-(4-Methoxyphenyl)piperazin-1-yl](5-pyrrolidin-1-yl[1,2,3]triazolo[4,5-b]-pyridin-3-yl)methanone], the melting point (as a rule, the temperature, or range, at which the solid turns liquid) is 138 to 140 °C.
`O=C(N1CCN(c2cccc(C(F)(F)F)c2)CC1)n1nnc2ccc(N3CCCC3)nc21` [compound 3, (5-pyrrolidin-1-yl[1,2,3]triazolo[4,5-b]pyridin-3-yl)[4-(3-trifluoromethylphenyl)piperazin-1-yl]methanone] displayed a melting point of 158 to 160 °C.
The molecule `O=C(N1CCN(c2cccc(C(F)(F)F)c2)CC1)n1nnc2ccc(N3CCOCC3)nc21` [compound 1, (5-morpholin-4-yl[1,2,3]triazolo[4,5-b]pyridin-3-yl)[4-(3-trifluoromethylphenyl)piperazin-1-yl]methanone] had a melting point of 172 to 174 °C. Moreover, in data set [1], the IC50 was determined as 10 nM. Besides, the IC50 in data set [2] stood at 4 nM.
Consider `O=C(N1CCN(c2ccc(C(F)(F)F)cc2)CC1)n1nnc2ccc(N3CCC(F)(F)C3)nc21` [compound 4, [5-(3,3-difluoropyrrolidin-1-yl)[1,2,3]triazolo[4,5-b]pyridin-3-yl)[4-(4-trifluoromethylphenyl)piperazin-1-yl]methanone], for which the melting point is 141 to 143 °C.
